pIC50: −log10 of the molar value. Where a name gives a salt, the structure may show the parent alone.
Key:
[1] = molecular target: T1, ATP-binding cassette sub-family C member 4 (Homo sapiens, UniProt O15439); experiment: Inhibition of human MRP4 overexpressed in Sf9 cell membrane vesicles assessed as uptake of [3H]-estradiol-17beta-D-glucuronide in presence of ATP and GSH measured after 20 mins by membrane vesicle transport assay; type: ADME, cell-based
T1 sequence (O15439 whole entry): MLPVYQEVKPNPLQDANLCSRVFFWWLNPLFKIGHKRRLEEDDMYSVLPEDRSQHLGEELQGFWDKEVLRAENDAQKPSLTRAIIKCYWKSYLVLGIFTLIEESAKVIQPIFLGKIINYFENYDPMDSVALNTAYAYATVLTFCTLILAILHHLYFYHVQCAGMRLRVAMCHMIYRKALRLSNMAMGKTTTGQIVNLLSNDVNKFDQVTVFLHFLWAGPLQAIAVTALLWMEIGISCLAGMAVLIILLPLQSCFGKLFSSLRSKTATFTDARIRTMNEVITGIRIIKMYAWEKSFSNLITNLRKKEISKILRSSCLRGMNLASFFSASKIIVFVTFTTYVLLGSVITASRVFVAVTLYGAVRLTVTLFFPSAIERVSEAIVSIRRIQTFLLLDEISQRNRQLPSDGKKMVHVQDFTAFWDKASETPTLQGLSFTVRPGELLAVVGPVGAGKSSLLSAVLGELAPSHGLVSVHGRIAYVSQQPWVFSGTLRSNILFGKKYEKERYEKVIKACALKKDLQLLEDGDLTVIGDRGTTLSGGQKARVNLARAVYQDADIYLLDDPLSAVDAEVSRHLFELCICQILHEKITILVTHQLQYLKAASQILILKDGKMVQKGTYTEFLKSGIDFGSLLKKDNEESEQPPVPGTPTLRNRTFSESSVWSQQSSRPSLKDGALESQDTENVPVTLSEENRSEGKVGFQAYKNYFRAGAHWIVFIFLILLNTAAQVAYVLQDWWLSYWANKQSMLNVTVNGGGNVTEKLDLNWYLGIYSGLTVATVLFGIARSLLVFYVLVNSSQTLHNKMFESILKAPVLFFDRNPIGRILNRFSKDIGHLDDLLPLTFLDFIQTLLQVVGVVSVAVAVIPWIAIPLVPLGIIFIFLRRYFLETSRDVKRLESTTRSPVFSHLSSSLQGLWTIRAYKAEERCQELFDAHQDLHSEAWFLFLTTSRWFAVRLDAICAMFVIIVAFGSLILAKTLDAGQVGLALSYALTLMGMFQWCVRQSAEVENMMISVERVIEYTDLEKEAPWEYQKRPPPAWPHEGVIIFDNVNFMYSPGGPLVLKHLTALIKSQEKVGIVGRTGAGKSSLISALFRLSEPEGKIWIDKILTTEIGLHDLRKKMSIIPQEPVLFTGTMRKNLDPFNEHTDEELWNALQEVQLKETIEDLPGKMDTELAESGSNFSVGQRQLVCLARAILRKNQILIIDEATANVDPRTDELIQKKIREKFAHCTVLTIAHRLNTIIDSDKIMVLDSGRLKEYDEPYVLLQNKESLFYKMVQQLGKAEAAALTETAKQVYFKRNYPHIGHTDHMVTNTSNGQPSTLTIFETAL

Bile salt export pump = Bile salt export pump (Homo sapiens, UniProt O95342); experiment: Inhibition of human BSEP overexpressed in Sf9 cell membrane vesicles assessed as uptake of [3H]-taurocholate in presence of ATP measured after 15 to 20 mins by membrane vesicle transport assay; type: ADME, cell-based
[2] = molecular target: ATP-binding cassette sub-family C member 2 (Homo sapiens, UniProt Q92887); experiment: Inhibition of human MRP2 overexpressed in Sf9 cell membrane vesicles assessed as uptake of [3H]-estradiol-17beta-D-glucuronide in presence of ATP and GSH measured after 20 mins by membrane vesicle transport assay
[3] = molecular target: ATP-binding cassette sub-family C member 3 (Homo sapiens, UniProt O15438); experiment: Inhibition of human MRP3 overexpressed in Sf9 insect cell membrane vesicles assessed as uptake of [3H]-estradiol-17beta-D-glucuronide in presence of ATP and GSH measured after 10 mins by membrane vesicle transport assay; type: ADME, cell-based
Sequence of ATP-binding cassette sub-family C member 3 (O15438 whole entry): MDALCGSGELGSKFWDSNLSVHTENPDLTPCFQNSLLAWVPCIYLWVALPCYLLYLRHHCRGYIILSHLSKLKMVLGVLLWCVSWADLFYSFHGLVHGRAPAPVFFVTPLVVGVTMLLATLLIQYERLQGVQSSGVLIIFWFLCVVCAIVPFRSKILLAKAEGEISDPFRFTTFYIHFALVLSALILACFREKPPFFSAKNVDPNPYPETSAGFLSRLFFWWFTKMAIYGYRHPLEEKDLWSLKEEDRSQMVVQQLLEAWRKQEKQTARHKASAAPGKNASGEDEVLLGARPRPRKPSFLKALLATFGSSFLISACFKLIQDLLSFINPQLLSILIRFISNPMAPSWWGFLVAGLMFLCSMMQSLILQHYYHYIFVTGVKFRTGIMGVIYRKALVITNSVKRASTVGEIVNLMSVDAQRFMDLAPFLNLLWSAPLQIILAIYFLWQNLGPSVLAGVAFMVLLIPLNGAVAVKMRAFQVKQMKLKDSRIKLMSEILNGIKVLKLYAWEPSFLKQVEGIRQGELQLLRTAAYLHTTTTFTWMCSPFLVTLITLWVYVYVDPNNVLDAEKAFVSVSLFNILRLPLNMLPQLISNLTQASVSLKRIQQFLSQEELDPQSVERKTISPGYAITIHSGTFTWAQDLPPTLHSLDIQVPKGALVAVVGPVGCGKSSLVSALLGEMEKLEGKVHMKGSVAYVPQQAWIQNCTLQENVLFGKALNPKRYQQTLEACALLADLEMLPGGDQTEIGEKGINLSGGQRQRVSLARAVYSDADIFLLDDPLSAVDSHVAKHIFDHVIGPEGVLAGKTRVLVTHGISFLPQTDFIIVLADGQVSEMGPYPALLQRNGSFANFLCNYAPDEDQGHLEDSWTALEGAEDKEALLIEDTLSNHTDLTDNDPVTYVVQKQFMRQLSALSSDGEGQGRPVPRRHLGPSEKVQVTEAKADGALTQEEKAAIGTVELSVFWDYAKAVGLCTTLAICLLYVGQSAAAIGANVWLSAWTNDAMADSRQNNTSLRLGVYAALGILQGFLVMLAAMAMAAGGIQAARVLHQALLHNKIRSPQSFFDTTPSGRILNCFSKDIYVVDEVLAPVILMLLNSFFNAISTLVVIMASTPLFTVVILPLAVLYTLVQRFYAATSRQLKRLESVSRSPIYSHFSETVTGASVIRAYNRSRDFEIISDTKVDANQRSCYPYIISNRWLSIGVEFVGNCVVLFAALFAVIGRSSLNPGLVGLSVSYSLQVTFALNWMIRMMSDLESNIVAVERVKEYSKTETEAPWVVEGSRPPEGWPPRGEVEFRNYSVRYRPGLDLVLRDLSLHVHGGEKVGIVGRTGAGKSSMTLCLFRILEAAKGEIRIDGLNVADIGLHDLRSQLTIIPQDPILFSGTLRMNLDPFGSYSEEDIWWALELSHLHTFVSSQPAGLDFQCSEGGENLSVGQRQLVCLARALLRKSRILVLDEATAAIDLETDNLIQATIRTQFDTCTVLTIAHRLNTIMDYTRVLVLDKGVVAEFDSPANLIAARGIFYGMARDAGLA

Sequence of Bile salt export pump (O95342 whole entry): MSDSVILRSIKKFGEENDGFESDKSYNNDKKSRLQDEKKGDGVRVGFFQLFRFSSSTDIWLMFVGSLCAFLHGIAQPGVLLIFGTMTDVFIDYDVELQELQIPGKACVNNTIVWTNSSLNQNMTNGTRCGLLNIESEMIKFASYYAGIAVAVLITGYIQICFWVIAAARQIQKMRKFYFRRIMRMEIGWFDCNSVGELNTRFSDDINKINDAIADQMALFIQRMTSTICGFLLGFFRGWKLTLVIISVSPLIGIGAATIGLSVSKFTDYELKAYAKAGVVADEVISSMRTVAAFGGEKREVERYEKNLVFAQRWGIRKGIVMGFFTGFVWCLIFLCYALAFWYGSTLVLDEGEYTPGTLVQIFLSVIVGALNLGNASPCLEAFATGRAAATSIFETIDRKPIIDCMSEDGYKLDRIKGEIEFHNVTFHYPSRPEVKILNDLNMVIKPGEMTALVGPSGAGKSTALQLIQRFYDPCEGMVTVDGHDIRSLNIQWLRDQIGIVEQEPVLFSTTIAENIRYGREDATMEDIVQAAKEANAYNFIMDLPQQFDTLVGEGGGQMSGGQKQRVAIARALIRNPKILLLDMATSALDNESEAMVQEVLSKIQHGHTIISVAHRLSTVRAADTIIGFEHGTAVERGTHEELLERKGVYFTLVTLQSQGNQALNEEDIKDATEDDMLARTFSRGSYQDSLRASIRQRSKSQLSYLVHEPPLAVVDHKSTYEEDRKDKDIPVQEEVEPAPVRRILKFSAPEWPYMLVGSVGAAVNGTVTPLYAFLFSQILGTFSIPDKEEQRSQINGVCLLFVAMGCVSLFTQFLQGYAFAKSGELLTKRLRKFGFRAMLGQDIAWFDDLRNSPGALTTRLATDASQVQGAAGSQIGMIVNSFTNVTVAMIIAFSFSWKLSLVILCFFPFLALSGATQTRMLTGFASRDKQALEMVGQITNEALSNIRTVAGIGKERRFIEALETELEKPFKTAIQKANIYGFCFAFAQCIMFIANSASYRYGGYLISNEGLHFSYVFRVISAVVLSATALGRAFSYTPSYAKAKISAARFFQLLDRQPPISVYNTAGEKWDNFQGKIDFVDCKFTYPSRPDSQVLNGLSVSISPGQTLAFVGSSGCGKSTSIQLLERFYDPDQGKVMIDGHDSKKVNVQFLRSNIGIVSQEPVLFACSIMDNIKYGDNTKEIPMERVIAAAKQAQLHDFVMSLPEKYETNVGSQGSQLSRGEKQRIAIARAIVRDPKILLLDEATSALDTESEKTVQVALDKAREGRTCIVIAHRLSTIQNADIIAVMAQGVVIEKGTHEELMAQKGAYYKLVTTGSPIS
Sequence of ATP-binding cassette sub-family C member 2 (Q92887 whole entry): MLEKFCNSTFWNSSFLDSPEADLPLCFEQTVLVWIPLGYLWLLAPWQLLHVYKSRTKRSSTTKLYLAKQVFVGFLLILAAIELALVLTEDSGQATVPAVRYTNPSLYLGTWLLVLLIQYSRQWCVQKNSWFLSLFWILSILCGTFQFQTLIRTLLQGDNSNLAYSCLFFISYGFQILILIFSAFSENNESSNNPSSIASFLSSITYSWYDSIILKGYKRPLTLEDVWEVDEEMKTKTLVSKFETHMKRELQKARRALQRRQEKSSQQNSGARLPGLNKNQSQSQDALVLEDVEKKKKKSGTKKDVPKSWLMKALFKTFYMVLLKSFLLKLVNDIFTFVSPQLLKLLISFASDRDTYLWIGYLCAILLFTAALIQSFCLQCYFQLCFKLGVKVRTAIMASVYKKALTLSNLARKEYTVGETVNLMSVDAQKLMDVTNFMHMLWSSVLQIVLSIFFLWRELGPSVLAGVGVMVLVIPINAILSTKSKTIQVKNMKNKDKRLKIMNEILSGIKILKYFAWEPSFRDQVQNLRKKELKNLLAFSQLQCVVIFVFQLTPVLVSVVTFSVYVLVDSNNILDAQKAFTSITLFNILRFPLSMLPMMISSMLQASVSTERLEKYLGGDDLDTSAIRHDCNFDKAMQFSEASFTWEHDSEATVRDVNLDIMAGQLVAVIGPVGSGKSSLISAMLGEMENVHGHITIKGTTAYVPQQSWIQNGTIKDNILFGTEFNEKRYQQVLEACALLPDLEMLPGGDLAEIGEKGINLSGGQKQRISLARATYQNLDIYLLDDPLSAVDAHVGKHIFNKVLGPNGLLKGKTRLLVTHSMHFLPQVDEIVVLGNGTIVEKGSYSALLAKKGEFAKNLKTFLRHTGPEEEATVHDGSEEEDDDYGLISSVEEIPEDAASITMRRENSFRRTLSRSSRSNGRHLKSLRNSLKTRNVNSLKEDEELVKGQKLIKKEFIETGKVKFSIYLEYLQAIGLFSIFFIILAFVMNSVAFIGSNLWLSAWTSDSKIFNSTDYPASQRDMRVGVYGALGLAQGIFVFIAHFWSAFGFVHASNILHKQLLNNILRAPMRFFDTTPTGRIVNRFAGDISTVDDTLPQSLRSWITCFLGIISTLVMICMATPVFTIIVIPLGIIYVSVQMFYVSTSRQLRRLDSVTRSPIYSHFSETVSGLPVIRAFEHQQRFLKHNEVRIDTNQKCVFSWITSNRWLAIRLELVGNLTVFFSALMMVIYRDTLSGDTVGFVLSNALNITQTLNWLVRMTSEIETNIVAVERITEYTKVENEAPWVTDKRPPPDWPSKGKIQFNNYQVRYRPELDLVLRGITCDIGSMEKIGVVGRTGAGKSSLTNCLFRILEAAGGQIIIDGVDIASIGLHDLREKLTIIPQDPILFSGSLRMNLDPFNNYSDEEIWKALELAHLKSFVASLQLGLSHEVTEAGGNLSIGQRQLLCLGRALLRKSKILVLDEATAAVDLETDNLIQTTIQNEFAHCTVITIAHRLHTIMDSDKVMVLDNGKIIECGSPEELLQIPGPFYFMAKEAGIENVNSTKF

| Molecule | pIC50 [1] | pIC50 (Bile salt export pump) | pIC50 [2] | pIC50 [3] |
| --- | --- | --- | --- | --- |
| CN(C)CCc1c[nH]c2ccc(C[C@H]3COC(=O)N3)cc12 [ZOLMITRIPTAN] | < 3.88 | < 3.88 | < 3.88 | < 3.88 |
| O=c1c(O)c(-c2ccc(O)c(O)c2)oc2cc(O)cc(O)c12 [QUERCETIN] | 4.68 | < 3.88 | < 3.88 | < 3.88 |
| CCOC(=O)[C@H](CCc1ccccc1)N[C@@H](C)C(=O)N1[C@H](C(=O)O)C[C@@H]2CCC[C@@H]21 | < 3.88 | < 3.88 | < 3.88 | < 3.88 |
| CCOC(=O)c1ncn2c1CN(C)C(=O)c1cc(F)ccc1-2 [FLUMAZENIL] | < 3.88 | < 3.88 | < 3.88 | < 3.88 |
| Cc1c(OCC(F)(F)F)ccnc1C[S@@+]([O-])c1nc2ccccc2[nH]1 [DEXLANSOPRAZOLE] | < 3.88 | < 3.88 | < 3.88 | < 3.88 |
| C/C(=C\C(=O)OCCCCCCCCC(=O)O)C[C@@H]1OC[C@H](C[C@@H]2O[C@H]2[C@@H](C)[C@H](C)O)[C@@H](O)[C@H]1O [MUPIROCIN] | < 3.88 | < 3.88 | < 3.88 | < 3.88 |
| Cc1cccn2c(=O)c(-c3nnn[nH]3)cnc12 [PEMIROLAST POTASSIUM] | < 3.88 | < 3.88 | < 3.88 | < 3.88 |
| CN(C)CCC[C@@]1(c2ccc(F)cc2)OCc2cc(C#N)ccc21 [ESCITALOPRAM OXALATE] | < 3.88 | < 3.88 | < 3.88 | < 3.88 |
| CCCCCCCCCC(=O)N[C@@H](Cc1c[nH]c2ccccc12)C(=O)N[C@H](CC(N)=O)C(=O)N[C@@H](CC(=O)O)C(=O)N[C@@H]1C(=O)NCC(=O)N[C@@H](CCCN)C(=O)N[C@@H](CC(=O)O)C(=O)N[C@H](C)C(=O)N[C@@H](CC(=O)O)C(=O)NCC(=O)N[C@H](CO)C(=O)N[C@@H]([C@H](C)CC(=O)O)C(=O)N[C@@H](CC(=O)c2ccccc2N)C(=O)O[C@@H]1C [DAPTOMYCIN] | < 3.88 | < 3.88 | 4.54 | < 3.88 |
| COc1cccc2c1C(=O)c1c(O)c3c(c(O)c1C2=O)C[C@@](O)(C(=O)CO)C[C@@H]3O[C@H]1C[C@H](N)[C@H](O)[C@H](C)O1 [DOXORUBICIN] | 4.72 | < 3.88 | < 3.88 | < 3.88 |
| CC(C)(C#N)c1cc(Cn2cncn2)cc(C(C)(C)C#N)c1 [ANASTROZOLE] | < 3.88 | < 3.88 | < 3.88 | < 3.88 |
| CN(C)CCCC1(c2ccc(F)cc2)OCc2cc(C#N)ccc21 (centres undefined) [CITALOPRAM] | < 3.88 | < 3.88 | < 3.88 | < 3.88 |
| enfuvirtide | 5.12 | < 3.88 | < 3.88 | < 3.88 |
| CC[C@@]1(O)C(=O)OCc2c1cc1n(c2=O)Cc2cc3ccccc3nc2-1 [CAMPTOTHECIN] | 5.13 | < 3.88 | < 3.88 | < 3.88 |
| CC(C)C[C@H](NC(=O)[C@@H](COC(C)(C)C)NC(=O)[C@H](Cc1ccc(O)cc1)NC(=O)[C@H](CO)NC(=O)[C@H](Cc1c[nH]c2ccccc12)NC(=O)[C@H](Cc1cnc[nH]1)NC(=O)[C@@H]1CCC(=O)N1)C(=O)N[C@@H](CCCNC(=N)N)C(=O)N1CCC[C@H]1C(=O)NNC(N)=O [GOSERELIN ACETATE] | < 3.88 | < 3.88 | < 3.88 | < 3.88 |
| O=C1c2c(O)cccc2Cc2cccc(O)c21 [ANTHRALIN] | < 3.88 | < 3.88 | < 3.88 | < 3.88 |
| CN(C(=O)c1c(O)c2ccccc2n(C)c1=O)c1ccccc1 [ROQUINIMEX] | < 3.88 | < 3.88 | < 3.88 | < 3.88 |
| CO/N=C(\C(=O)N[C@@H]1C(=O)N2C(C(=O)OC(C)OC(C)=O)=C(COC(N)=O)CS[C@H]12)c1ccco1 (some centres undefined) [CEFUROXIME AXETIL] | 4.55 | < 3.88 | < 3.88 | < 3.88 |

| Molecule | pIC50 [1] | pIC50 (Bile salt export pump) | pIC50 [2] | pIC50 [3] |
| --- | --- | --- | --- | --- |
| COc1cc2c3cc1Oc1cc(ccc1O)C[C@@H]1c4c(cc(OC)c(O)c4Oc4ccc(cc4)C[C@@H]3N(C)CC2)CC[N+]1(C)C [TUBOCURARINE] | 5.02 | < 3.88 | < 3.88 | < 3.88 |
| NCC1O[C@H](O[C@H]2[C@@H](O)[C@H](O[C@H]3[C@H](O)[C@@H](N)C[C@@H](N)[C@@H]3O[C@H]3O[C@H](CN)[C@@H](O)[C@H](O)[C@H]3N)O[C@@H]2CO)[C@H](N)[C@@H](O)[C@@H]1O (some centres undefined) | < 3.88 | < 3.88 | < 3.88 | < 3.88 |
| C[C@@H]1CCN(C(=O)CC#N)C[C@@H]1N(C)c1ncnc2[nH]ccc12 [TOFACITINIB] | < 3.88 | < 3.88 | < 3.88 | < 3.88 |
| CCN(CCO)CCCC(C)Nc1ccnc2cc(Cl)ccc12 (centres undefined) [HYDROXYCHLOROQUINE SULFATE] | < 3.88 | < 3.88 | < 3.88 | < 3.88 |
| C[C@@](Cc1ccc(O)c(O)c1)(NN)C(=O)O [CARBIDOPA ANHYDROUS] | < 3.88 | < 3.88 | < 3.88 | < 3.88 |
| Cc1c(C(=O)NN2CCCCC2)nn(-c2ccc(Cl)cc2Cl)c1-c1ccc(Cl)cc1 [RIMONABANT] | < 3.88 | 4.60 | < 3.88 | < 3.88 |
| CC(=O)NC[C@H]1CN(c2ccc(N3CCOCC3)c(F)c2)C(=O)O1 [LINEZOLID] | < 3.88 | < 3.88 | < 3.88 | < 3.88 |
| CN1CCC(=C2c3ccccc3CC(=O)c3sccc32)CC1 [KETOTIFEN FUMARATE] | < 3.88 | < 3.88 | < 3.88 | < 3.88 |
| CC(=O)N(CC(O)CO)c1c(I)c(C(=O)NCC(O)CO)c(I)c(C(=O)NCC(O)CO)c1I (centres undefined) [IOHEXOL] | < 3.88 | < 3.88 | < 3.88 | < 3.88 |
| CCC1(C)CC(=O)NC1=O (centres undefined) [ETHOSUXIMIDE] | < 3.88 | < 3.88 | < 3.88 | < 3.88 |
| O=C(O)CCC/C=C\CC1C(O)CC(O)C1/C=C/C(O)COc1cccc(Cl)c1 (centres undefined) [CLOPROSTENOL SODIUM] | 5.72 | < 3.88 | < 3.88 | < 3.88 |
| CN(C)/N=N/c1[nH]cnc1C(N)=O [DACARBAZINE] | < 3.88 | < 3.88 | < 3.88 | < 3.88 |
| C[C@H]1[C@H](OC(=O)CCC(=O)O)O[C@@H]2O[C@@]3(C)CC[C@H]4[C@H](C)CC[C@@H]1[C@@]24OO3 [ARTESUNATE] | < 3.88 | < 3.88 | < 3.88 | < 3.88 |
| Cc1cn([C@H]2C[C@H](N=[N+]=[N-])[C@@H](CO)O2)c(=O)[nH]c1=O [ZIDOVUDINE] | < 3.88 | < 3.88 | < 3.88 | < 3.88 |
| Cc1cc(NS(=O)(=O)c2ccc(N)cc2)no1 [SULFAMETHOXAZOLE] | < 3.88 | < 3.88 | < 3.88 | < 3.88 |
| CNC1(c2ccccc2Cl)CCCCC1=O (centres undefined) [KETAMINE] | < 3.88 | < 3.88 | < 3.88 | < 3.88 |
| N=C(N)c1ccc(OCCCCCOc2ccc(C(=N)N)cc2)cc1 [PENTAMIDINE] | < 3.88 | < 3.88 | < 3.88 | < 3.88 |
| CSc1ccc(C(=O)c2[nH]c(=O)[nH]c2C)cc1 [ENOXIMONE] | < 3.88 | < 3.88 | < 3.88 | < 3.88 |
